As usually defined, the ED50 is the dose at which the effect has come halfway, by size or by number of responders.

Values after ≈ are worked out from the molar mass of the structure shown.

The values below come from patent US4808584A, “Quinolinecarboxylic acid derivatives and antibacterial agent containing the same” (Kanebo, Ltd., priority 1987, dated 1989).

Experiment [1] has as its system Enterobacter aerogenes ATCC 13048. Put plainly: Minimum inhibitory concentration (MIC). In kind it is cell-based. To be noted: Klebsiella aerogenes, ATCC13048, Enterobacter aerogenes ATCC 13048, Gram -. In outline:
(§1)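 Test compounds were dissolved at 5000 μg/ml (stock) in 0.1N aqueous KOH or in sterilized distilled water, then diluted with sterile water to a 1000 μg/ml standard solution. MICs were determined by the Japan Society of Chemotherapy standard method.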

Another experiment has as its system Enterobacter cloacae 963. Briefly: Minimum inhibitory concentration (MIC). To be noted: Enterobacter cloacae 963, Gram -. It is filed as cell-based. In outline: as §1
In experiment [2] the test system is Escherichia coli NIHJ JC-2. Put plainly: Minimum inhibitory concentration (MIC). It is filed as cell-based. The conditions noted are these: NIHJJC2; Escherichia coli NIHJ JC-2, Gram -. In outline: as §1
Experiment [3] deals with Proteus mirabilis IFO 3849. Briefly: Minimum inhibitory concentration (MIC). It is filed as cell-based. To be noted: IFO3849; Proteus mirabilis IFO 3849, Gram -. The essentials:
as §1

Another experiment concerns Proteus vulgaris OX-19. Put plainly: Minimum inhibitory concentration (MIC). It is filed as cell-based. The conditions noted are these: OX19; Proteus vulgaris OX-19, Gram -; read-out: Minimum inhibitory concentration (MIC). The essentials:
as §1

In experiment [4] the test system is Pseudomonas aeruginosa E-2. Briefly: Minimum inhibitory concentration (MIC). It is filed as cell-based. The conditions noted are these: E2; Pseudomonas aeruginosa E-2, Gram -. The essentials: as §1
The test system of experiment [5] is Salmonella typhimurium IID 971. Put plainly: Minimum inhibitory concentration (MIC). It is filed as cell-based. The conditions noted are these: Salmonella enterica, Salmonella typhimurium IID 971, Gram -; read-out: Minimum inhibitory concentration (MIC). The essentials:
as §1

Experiment [6] concerns Serratia marcescens IAM 1184. Put plainly: Minimum inhibitory concentration (MIC). The conditions noted are these: Serratia marcescens, IAM1184, Serratia marcescens IAM 1184, Gram -. It is filed as cell-based. The essentials:
as §1

A further experiment relates to Shigella sonnei EW-33. Briefly: Minimum inhibitory concentration (MIC). It is filed as cell-based. The conditions noted are these: EW33; Shigella sonnei EW-33, Gram -. In outline:
as §1

Experiment [7] has as its system Staphylococcus epidermidis IAM-1296. Briefly: Minimum inhibitory concentration (MIC). In kind it is cell-based. The conditions noted are these: Staphylococcus epidermidis, IAM1296, Staphylococcus epidermidis IAM-1296, Gram +. The essentials:
as §1

Experiment [8] concerns Streptococcus faecalis IID 682. Put plainly: Minimum inhibitory concentration (MIC). In kind it is cell-based. To be noted: Enterococcus faecalis, IID682, Streptococcus faecalis IID 682, Gram +. The essentials: as §1
The subject of experiment [9] is Staphylococcus aureus IID 803. Put plainly: Effect on treatment of general infectious disease. It is filed as in vivo, ddY male mice. The conditions noted are these: IID803, 168 h, S. aureus IID 803, 1.0×10^6 CFU/mouse i.p., oral one hour after infection, survival after one week. How it is done:
Staphylococcus aureus IID 803 (1.0×10^6 CFU/mouse)
The test microorganisms were subjected to standing culture in Trypto-Soya Agar "Nissui" (made by Nissui Seiyaku K.K., Japan) at 37° C. for 16 to 18 hours. The culture was then diluted with PBS (Dulbecco's phosphate buffered saline) and mixed with an equivalent amount of 10% (w/v) Mucin (BACTO MUCIN BACTERIOLOGICAL, made by Difco Co.) to prepare a microorganism solution. The thus prepared microorganism solution (0.5 ml each) was intraperitoneally innoculated to ddY male mice (4 weeks age, weighing 20-22 g, 5 mice in each group), to infect the animals. One hour after the infection, the compound (B) of the present invention dissolved in sterilized distilled water or ofloxacin suspended in 0.5% (w/v) aqueous sodium carboxymethyl cellulose solution was orally adiministered to mice.
The mice were daily observed for one week, and from the survival number of mice after one week, the 50% effective dose (ED50) was calculated by Weil method.

As to `CC1COc2c(N3CCN(C)CC3)c(F)cc3c(=O)c(C(=O)O)cn1c23` (racemic) [Ofloxacin, reference compound], the MIC came to 0.1 µg/mL (≈ 0.277 µM) in experiment [1]; 0.2 µg/mL (≈ 0.553 µM) against Enterobacter cloacae 963; 0.1 µg/mL (≈ 0.277 µM) in experiment [2]; 0.39 µg/mL (≈ 1.08 µM) in [3]; 0.05 µg/mL (≈ 0.138 µM) with Proteus vulgaris OX-19; 1.56 µg/mL (≈ 4.32 µM) in experiment [4]. Further, the MIC in [5] turned out to be 0.05 µg/mL (≈ 0.138 µM); in [6], 0.78 µg/mL (≈ 2.16 µM); with Shigella sonnei EW-33, 0.05 µg/mL (≈ 0.138 µM); in experiment [7], 0.78 µg/mL; in [8] it was 1.56 µg/mL. The molecule also gave an ED50 in experiment [9] of 11.5 mg/kg.
